# In patent publication US6620911B1, “Anti-cryptococcal peptides” (Arizona Board of Regents, acting for and on behalf of …, priority 1998, dated 2003):
# Columns and labels:
# Candida glabrata = assay: Disk diffusion susceptibility testing; format: cell-based; settings: ATCC 90030
# Procedure: (§1) Antimicrobial activity was assayed by disk susceptibility tests according to the NCCLS (National Committee for Clinical Laboratory Standards, Performance Standards for Antimicrobial Disk Susceptibility Tests-Sixth Edition: Approved standard M2-A6, NCCLS, Wayne, Pa., 1997). Inocula were adjusted to a density of 0.10 at 625 nm in SDA broth, and spread on SDA plates. Excess moisture was allowed to absorb for 10 min before applying dried disks containing two-fold dilutions of the drugs. Test plates were incubated at 35° C. (25° C. for C. albidus and C. laurentii), and zones of inhibition recorded after 48 h. The minimum inhibitory concentration (MIC) was defined as the lowest concentration of drug resulting in a clear zone of growth inhibition. Disk susceptibility testing of Staphylococcus aureus, Enterococcus faecalis, Escherichia coli and Neisseria gonorrhoeae was also performed.
# Candida albicans = assay: Disk diffusion susceptibility testing; format: cell-based; settings: ATCC 90028
# Procedure: as §1
# Cryptococcus neoformans [1] = assay: Disk diffusion susceptibility testing; format: cell-based; settings: ATCC 90112
# Procedure: as §1
# Cryptococcus neoformans [2] = assay: Broth macrodilution assay (MIC, MFC), ATCC strains; format: cell-based; settings: C. neoformans #14116
# Procedure: (§2) Dolastatin 10 and modifications were screened against yeasts by the broth macrodilution assay according to the NCCLS (National Committee for Clinical Laboratory Standards, Reference Method for Broth Dilution Antifungal Susceptibility Testing of Yeasts: Approved Standard M27-A, NCCLS, Wayne, Pa., 1997). Yeasts were suspended and diluted as recommended to yield final inocula ranging from 0.5-2.5×10^3 colony forming units (CFU)/ml. Tests were performed in sterile 12×75 mm plastic tubes containing two-fold dilutions of the peptides in 0.165 M morpholinepropanesulfonic acid (MOPS)-buffered RPMI 1640 medium (pH 7.0). One tube was left drug-free for a turbidity control. Tubes were incubated without agitation at 35° C. (25° C. for C. albidus and C. laurentii). MICs were determined after 72 h for Cryptococcus, and after
# (§3) 48 h for other yeast genera. The MIC was defined as the lowest concentration of compound that inhibited all visible growth of the test organism.
# (§4) Minimum fungicidal concentrations (MFCs) were determined by subculturing 0.1 ml from each tube with no visible growth in the MIC broth macrodilution series onto drug-free SDA plates. The plates were incubated at 35° C. for 48 h for Cryptococcus (25° C. for C. alhidus and C. laurentii), and 35° C. for 24 h for all other yeast and filamentous fungi.
# C. neoformans (#90112) = assay: Killing kinetics; format: cell-based, Cryptococcus neoformans; settings: 1x, 4x, 8x MIC, FIG. 2
# Procedure: Overnight cultures of C. neoformans (#90112) in Ph 7.0 MOPS-buffered RPMI 1640 medium were inoculated into the same medium containing multiples of the broth macrodilution MIC of the antifungal peptides, or an equivalent volume of DMSO. Cultures were shaken at 35° C., and aliquots aseptically removed at various times for dilution plating.
# Cryptococcus albidus = assay: Disk diffusion susceptibility testing; format: cell-based; settings: ATCC 66030
# Procedure: as §1
# Cryptococcus laurentii = assay: Disk diffusion susceptibility testing; format: cell-based; settings: ATCC 66036
# Procedure: as §1
# [3] = test system: Cryptococcus neoformans #90112; assay: Effect of host factors (pH, human serum) on broth macrodilution MICs and MFCs; format: cell-based; settings: acidified RPMI
# Procedure: as §2, §3, §4
# Broth macrodilution assays were performed with RPMI prepared at pH 5, pH 6 and pH 7, and in RPMI, with and without 50% normal human serum (Lampire Biological Labs). Cryptococcus neoformans #90112 was used in each case.
# [4] = test system: clinical isolates of C. neoformans; assay: Broth macrodilution (MIC, MFC), 19 clinical isolates; format: cell-based, Cryptococcus neoformans
# Excerpt: Clinical isolates of C. neoformans were obtained from patient cerebrospinal fluid, blood, bone marrow, sputum, bronchial lavage and wound infections at the University of Virginia Medical Center, Strains clinically resistant to fluconazole (See: Jessup, C. J. et al, 1997; Poster #F-88, 37th ICAAC, Toronto, Canada) were provided by the Center for Medical Mycology, Case Western Reserve University. Yeast strains (except for C. albidus and C. laurentii) were maintained by single colony transfer on Sabouraud Dextrose Agar (SDA), pH 5.6 at 35° C. Cryptococcus albidus, C. laurentii and C. uniguttulatus (#66033) were maintained on SDA, pH 6.6 at 25° C., C. uniguttulatus (#34143) and C. ater on Yeast Morphology (YM) agar at 25° C. and filamentous fungi were maintained on Potato Dextrose Agar (PDA) slants at 35° C.
# as §2, §3, §4
SMILES,MIC (Candida glabrata),MIC (Candida albicans),MIC (Cryptococcus neoformans [1]),MFC relative to MIC (Cryptococcus neoformans [2]),"fungicidal action, reductions in CFUs (C. neoformans (#90112))",MIC (Cryptococcus albidus),MIC (Cryptococcus laurentii),effect of lowered pH on anticryptococcal activity [3],MFC50 ([4]; 19 clinical isolates),MFC90 ([4]; 19 clinical isolates),MIC50 (MIC at which 50% of the isolates were inhibited) ([4]; 19 clinical isolates),MIC90 (MIC at which 90% of the isolates were inhibited) ([4]; 19 clinical isolates),"clinical isolate MFCs, range ([4]; 19 clinical isolates)",share of clinical isolates with MFC/MIC ratio equal to 4 ([4]; 19 clinical isolates),share of clinical isolates with MFC/MIC ratio less than or equal to 2 ([4]; 19 clinical isolates),resistant clinical isolates ([4]; 19 clinical isolates (not fluconazole-resistant strains)),recovery: MFCs after the recommended incubation period compared with one week later ([4]; clinical isolates)
CCC(C)C(C(CC(=O)N1CCC[C@H]1C(OC)C(C)C(=O)NC(Cc1ccccc1)C(=O)Nc1nc(SC)ns1)OC)N(C)C(=O)[C@@H](NC(=O)[C@H](C(C)C)N(C)C)C(C)C (stereo partly drawn) [1c],>100 μg/disk,>100 μg/disk,1.56-3.12 μg/disk,sixteenfold greater than MICs,–,–,–,–,–,–,–,–,–,–,–,–,–
CCC(C)C(C(CC(=O)N1CCC[C@H]1C(OC)C(C)C(=O)NC(Cc1ccccc1)C(=O)OC)OC)N(C)C(=O)[C@@H](NC(=O)[C@H](C(C)C)N(C)C)C(C)C (stereo partly drawn) [1d],–,>100 μg/disk,3.12-6.25 μg/disk,–,most dramatic reductions in CFUs,>100 μg/disk,>100 μg/disk,least affected by lowered pH,0.39 µg/mL,0.78 µg/mL,0.195 µg/mL,0.39 µg/mL,0.0975 to 6.24 µg/mL,26%,more than 68%,No resistant clinical isolates were found,no evidence of recovery
CCC(C)C(C(CC(=O)N1CCC[C@H]1C(OC)C(C)C(=O)NC(CCSC)C(=O)Nc1cnc2ccccc2c1)OC)N(C)C(=O)[C@@H](NC(=O)[C@H](C(C)C)N(C)C)C(C)C (stereo partly drawn) [1e],–,>100 μg/disk,25-50 μg/disk,–,–,–,–,–,–,–,–,–,–,–,–,–,–
